Test results: patent publication US10028973B2, “Using DNA methyltransferase inhibitors to treat calcific aorta valve disease” (Mayo Foundation for Medical Education and Research, priority 2014, dated 2018)

How the values were obtained:
[1] = system: mouse aortic valves; experiment: Acute Decitabine treatment of mice with established CAVD: gene expression in aortic valve tissue by quantitative real-time RT-PCR; format: in vivo; conditions: ldlr−/−/apoB100/100 (LA) mice on Western diet 6 months, 0.5 or 1 mg/kg/day i.p. for 5 days
Procedure: FIG. 5 is a pair of graphs plotting the effects of DNMT inhibition with decitabine (DAC) on expression of the pro-osteogenic signaling genes, Runx2 and osteopontin (SPP1), in mouse aortic valves in vivo. DAC was administered using daily intraperitoneal injections at the doses indicated (mg/kg/day) for 5 days, and gene expression was measured using quantitative real-time RT-PCR and mRNA isolated from mouse aortic valve tissue.
FIG. 6 is a graph plotting the effects of DNMT inhibition with DAC on expression of the anti-osteogenic gene, FABP4 (a PPARγ target). DAC was administered using daily intraperitoneal injections at the doses indicated (mg/kg/day) for 5 days, and gene expression was measured using quantitative real-time RT-PCR and mRNA isolated from mouse aortic valve tissue.
To determine whether acute DNA methyltransferase inhibition promotes anti-calcific gene expression patterns in mice with established calcific aortic valve disease, ldlr^−/−/apoB^100/100 (LA) mice were placed on a Western diet for 6 months (which produces mild to moderate valvular dysfunction), and treated with vehicle or Decitabine (5-aza-2′-deoxycytidine; “DAC”) for 5 days (0.5 or 1 mg/kg/day, i.p.). Changes in cardiac and aortic valve function at 3 and 6 months are evaluated. […] The second group is used for semi-quantitative histological/immunohistochemical evaluation of aortic valve (n=10). The third group is used for genome-wide evaluation of gene expression using microarrays (n=20), and the fourth group is used for high-resolution μCT scanning for quantitation of calcium burden in aortic valve and root (n=15).
Quantitative Real-Time RT-PCR: Aortic valve cusps are dissected, and tissue is processed and stored using commercially available lysis buffer with β-mercaptoethanol (Miller et al., Am J Physiol Heart Circ Physiol 298:H1600-1607, 2010). Quantitative real-time RT-PCR studies confirming array-detected changes in gene expression are performed on a StepOne Plus instrument (Applied Biosystems).

[2] = system: hypercholesterolemic mice; experiment: Chronic low-dose Decitabine treatment: progression of aortic valve calcification and stenosis (cusp separation distance, echocardiography); format: in vivo, mouse; conditions: FIG. 8
Procedure: FIG. 8 is a graph plotting cusp separation distance in control mice and in mice treated with DAC (0.1 mg/kg i.p., 2 days/week for 3 months). […] Echocardiographic evaluation of aortic valve function: Echocardiographic evaluation of aortic valve function is conducted as described elsewhere (Miller et al. 2009, supra; Hinton et al., Am J Physiol Heart Circ Physiol 294:[…]-2488, 2008; Barrick et al., Am J Physiol Heart Circ Physiol 297:[…]-75, 2009; and Miller et al., Circ Res 108:1392-1412, 2011). In brief, a Vevo 2200 small animal ultrasound unit is used to evaluate 1) cusp separation distance from M-mode images, 2) peak transvalvular blood velocity, and 3) color Doppler screening for evidence of aortic valve regurgitation. […] Short- and long-axis views of the left ventricle also are acquired to evaluate ventricular function (Berry et al., J Cardiovasc Magn Reson 11:27, 2009).

[3] = system: pig aortic valve interstitial cells; experiment: Calcium deposition in aortic valve interstitial cells in vitro; format: cell-based; conditions: FIG. 7
Excerpt: FIG. 7 is a graph plotting the effects of DNMT inhibition with DAC calcium deposition in pig aortic valve interstitial cells in vitro.

Nc1ncn([C@H]2C[C@H](O)[C@@H](CO)O2)c(=O)n1 [Decitabine, 5-Aza-2′-deoxycytidine]
Sp7 expression [1]: dose-dependent reductions
Runx2 expression ([1]; FIG. 5): dose-dependent reductions
PPARγ target gene expression (e.g., FABP4) ([1]; FIG. 6): increased PPARγ target gene expression
progression of aortic valve stenosis (cusp separation distance) ([2]; 0.1 mg/kg i.p., 2 days/week for 3 months, larger cusp separation distance = improved valve function): slowed progression of aortic valve stenosis
progression of aortic valve calcification and stenosis ([2]; low-dose, hypercholesterolemic mice in vivo): successfully slowed progression
calcification in aortic valve interstitial cells [3]: reduced calcification
